# Data from patent US20260224475A1, “MULTI-COMPONENT INTRAVAGINAL RING” (priority 2023, published 2026).
# Where two headings read alike, the source gives them in different places.
# Columns and labels:
# [1] = test system: VEC-100 tissue; experiment: VEC-100 tissue, repeated exposure (1 hr daily for 5 days; viability, TEER); format: cell-based; conditions: for Non-toxic concentrations in VEC-100 model TEER and LDH 5 daily exposures: multiple treatments
# [2] = test system: human sperm; experiment: Sperm motility assay; format: cell-based; conditions: for Average Motility Reduction: average of nine 3-API checkerboard combinations containing the named API at this dose; for Average CI: average of nine 3-API combinations
# Method: Fresh human sperm samples were obtained the day of the experiment. 100 mM stock solutions of each API in saline were prepared in advance. Immediately prior to the experiment, solutions of each API concentration to be tested were prepared via dilution with saline. These include solutions of multiple APIs added together.
# The effect of each API on sperm motility and viability was determined using human donors, adding 200 μL of API's diluted in sterile saline to 50 μL of fresh semen. For motility assessments, the incubation mixture was incubated for 5 minutes and then 100 sperm were counted under the microscope by two andrology-trained researchers and classified as either non-motile or motile. If motile, the sperm were further classified according to the nature of their motility—from barely twitching with no forward progression to progressively motile. Each experiment was repeated at least three times on different days using different donors to account for natural variations in sperm properties.
# The % motility for each experimental condition was calculated by normalizing the fraction of motile sperm in the experimental groups to the fraction of motile sperm in the saline control treated group, setting 100% to the average fraction of motile sperm from control experiments. For example, the % motility at concentration c would be:
# Once % motility data was obtained, the synergy was measured with Compusyn software. See Chou et al., CompuSyn for drug combinations: PC software and user's guide: a computer program for quantitation of synergism and antagonism in drug combinations, and the determination of IC50. ED50 and LD50 values, which is incorporated herein by reference in its entirety. Motility data for individual API concentration as well as all double and triple API solutions was entered into the program and analyzed according to the Chou-Talalay Median Effect Principle.
# Next, the synergy between each of the APIs was tested to determine if there were any synergistic effects between compounds which would allow for reduced dosages. Each of the three possible two-compound combinations were tested, followed by the combination of all three APIs. […] Synergy was calculated with Compusyn using the Chou-Talalay Median Effect approach and represented as a CI (Combination Index) value. […] The smaller the CI value for a combination, the greater the degree of synergy.
# After the two-API combinations were complete, the full three-way synergy was tested using a 3×3×3 checkerboard style assay to test all 27 permutations of three chosen concentrations for each of the three APIs.
# From the resulting data, the estimated effects of each of the individual API were isolated by averaging % reduction in motility and the CI values for each of the API concentrations tested. With this 3×3×3 checkerboard assay, each single concentration was tested against nine permutations of the other two APIs, meaning that each cell in Table 4 represents the average of the nine combinations involving the specified API concentration.
# Synergy was calculated utilizing the Chou-Talalay median effect principle and Compusyn software which quantifies synergy as a combination index (CI) for each combination. A CI<1 signifies synergy, a CI>1 signifies antagonism and a CI=1 signifies a purely additive effect.
# [3] = test system: human sperm; experiment: Sperm-Cervical Mucus Penetration Test (SMPT) in methylcellulose; format: cell-based
# [4] = test system: HIV-1BaL; experiment: MAGI assay, anti-HIV-1BaL activity in TZMbl cells; format: cell-based; conditions: read-out: EC50 (95% confidence interval)
# Method: MAGI assay was performed to test anti-HIV-1BaL activity. […] Virus controls containing HIV-1BaL in saline were incubated under the same conditions. Following incubation, API-HIV-1BaL mixture was diluted 10-fold and added to TZMbl cells. Following 72-hour incubation, the cells were washed and stained with X-gal and fixed. […] Infected cells were counted using CTL instrument.
# [5] = test system: HSV-2 G; experiment: HSV-2 plaque reduction assay; format: cell-based; conditions: 30 min pre-incubation with HSV-2 G in saline, read-out: EC50 (95% confidence interval)
# Method: The HSV-2 plaque reduction assay was performed to test the anti-HSV-2 activity of ZA, CS and LA. […] Virus controls containing HSV-2 in saline were incubated under the same conditions. After incubation all dilutions and controls were diluted 1/10 in DMEM and tittered using the plaque assay. FIG. 12 and Table 10 show the results. […] The data represented the average of two independent experiments. In Table 10, the molar ratio of CS:LA:ZA in ZS-CA-LA is 1:20:100.
# [6] = test system: N. gonorrhoeae; experiment: Minimal cidal concentration (MCC); format: cell-based; conditions: for MCC: 30 minutes exposure, >3 log decrease in CFU considered cidal
# [7] = test system: G. vaginalis; experiment: Minimal cidal concentration (MCC); format: cell-based; conditions: 30 minutes exposure; >3 log decrease in CFU considered cidal
# [8] = test system: C. trachomatis; experiment: Bactericidal activity against C. trachomatis (inclusion count in HeLa cells); format: cell-based; conditions: for inhibition of C. trachomatis infection (in words): absence or presence of 2% VF and 20% SF, 2 hours at room temperature, LA 80 mM
# Method: C. trachomatis was incubated with actives ±2% VF and 20% SF for 2 hours at room temperature. The mixtures were serially diluted 1/10 in SPG solution, applied on HeLa cells in triplicate. Images were acquired using the Cytation-5 instrument and the inclusion count was analyzed using the Gen5 software in the Cytation-5. Control conditions included HeLa cells challenged with C. trachomatis in the absence of the actives. (FIG. 15).
# [9] = test system: Ectocervical explants; conditions: for Non-toxic concentrations in ectocervix MTT and histology 24 hr: single treatment
# Method: Kruskal-Wallis test with Dunn's multiple comparison) (FIG. 22).
# In FIG. 23, ectocervical explants were incubated with the selected concentrations of the APIs for 24 hr in the presence or absence of 5% VF. Explants were fixed, paraffin embedded, sectioned and stained with H&E.
# Ectocervical explants were exposed to the APIs 24 hr in the presence or absence of 5% VF. Supernatants were collected and analyzed for pro-inflammatory cytokines.
# [10] = test system: lactobacillus; experiment: Non-cidal concentrations in lactobacillus (MCC 30 min); format: cell-based
# [11] = test system: VEC-100 tissue
# Method: VEC-100 tissues were incubated with APIs for 24 hr. Tissue viability was analyzed by MTT and LDH assay and TEER measurements were recorded.
# [12] = Dose 1 (CS 2.95, ZA 4.75, LA 10.26 mM)
# [13] = Dose 2 (CS 3.94, ZA 6.34, LA 13.70 mM)
# [14] = Dose 3 (CS 5.90, ZA 9.51, LA 20.54 mM)
# [15] = single API, 30 min pre-incubation with virus in saline, 10-fold dilution, 72 h on TZMbl cells
molecule,measurement,setting,value
Triton [reference compound],"VEC-100 single exposure (MTT, TEER and LDH) day 1-5 24 h No VF","[1]; control, concentration not given",Tox
"CC(O)C(=O)O (racemic) [LA, lactic acid]",Average Motility Reduction,[2]; [12],54.75%
same,Average Motility Reduction,[2]; [13],70.74%
same,Average Motility Reduction,[2]; [14],91.84%
same,EC50,"[2]; Homo sapiens, Sperm, 5 min, single API (CS/ZA/LA study), saline, 5 min with fresh semen, % motility vs saline control",20.5 mM
same,EC90,"[2]; Homo sapiens, Sperm, 5 min, single API (CS/ZA/LA study), saline, 5 min with fresh semen, % motility vs saline control, read-out: EC90",28.7 mM
same,EC90,"[2]; Homo sapiens, Sperm, Table 16, concentration of the named API in the CS + ZL + LA combination (cf. Table 7), read-out: Anti-Sperm concentrations Total motility (EC90)",21 mM
same,EC50,"[2]; Homo sapiens, Sperm, single API (CS/ZL/LA study)",21 mM
same,EC90,"[2]; Homo sapiens, Sperm, single API (CS/ZL/LA study), read-out: EC90",29 mM
same,EC90,"[2]; Homo sapiens, Sperm, single API, read-out: Reduction of Sperm Motility EC90 [95% CI] (concentration to inhibit total sperm motility)",29 mM
same,MIC (concentration to inhibit progressive sperm motility),[2]; single API,20 mM
same,EC90,"[3]; Homo sapiens, Sperm, 0.5 h, single API, 1% methylcellulose, 30 minutes, read-out: Inhibition of Sperm Mucus Penetration EC90 [95% CI] (Migration of vanguard sperm in methyl cellulose spiked with API)",5 mM
same,EC90,"[3]; Homo sapiens, Sperm, Table 16, concentration of the named API in the CS + ZL + LA combination (cf. Table 7), read-out: Anti-Sperm concentrations Sperm-mucus penetration (EC90)",1.5 mM
same,EC50,[4]; TZM-bl,2.5 mM
same,EC50,"[5]; Human alphaherpesvirus 2, single API",160 µM
same,MCC 10% AB Serum,[6],111 mM
same,MCC 30% AB Serum,[6],111 mM
same,MCC,[6],111 mM
same,MCC No Serum,[6],111 mM
same,MCC,[7],111 mM
same,anti-C. trachomatis activity (in words),[8]; LA concentrations lower than 80 mM,no activity was observed
same,inhibition of C. trachomatis infection (in words),[8],significantly inhibited infection
same,"Ectocervix: single exposure (MTT, Histology, CC) 24 h, 5% VF",[9]; 111 mM,No Tox
same,"Ectocervix: single exposure (MTT, Histology, CC) 24 h, No VF",[9]; 111 mM,No Tox
same,"Ectocervix: single exposure (MTT, Histology, CC) 24 h, 5% VF",[9]; 222 mM,No Tox
same,"Ectocervix: single exposure (MTT, Histology, CC) 24 h, No VF",[9]; 222 mM,No Tox
same,Non-toxic concentrations in ectocervix MTT and histology 24 hr,[9],222 mM
same,Non-cidal concentrations in lactobacillus MCC 30 min,[10],222 mM
same,"VEC-100 single exposure (MTT, TEER and LDH) day 1-5 24 h No VF",[1]; […] mM,No Tox
same,Non-toxic concentrations in VEC-100 model TEER and LDH 5 daily exposures,[1],22 mM
same,concentration up to which exposure alone did not induce toxicity,"[11]; single active, 24 h single exposure, summary of ectocervix and VEC-100 findings",up to 222 mM
same,Non-toxic concentrations in VEC-100 model TEER and LDH 24 h,[11]; single treatment,222 mM
same,Non-toxic concentrations based on rat vaginal irritation study 10 days exposure,"rat, in vivo, 10 days",200 mM
"O=S(=O)([O-])[O-].[Cu+2] [CS, copper sulfate]",EC50,[4]; [15],0.183 mM
same,EC50,[5]; single API,9 µM
same,inhibition of C. trachomatis infection (in words),[8],significantly inhibited infection
"CC(O)C(=O)[O-].CC(O)C(=O)[O-].[Zn+2] (stereo not shown) [ZL, zinc lactate]",EC90,"[2]; Table 16, concentration of the named API in the CS + ZL + LA combination (cf. Table 7), read-out: Anti-Sperm concentrations Total motility (EC90)",22 mM
same,EC90,"[2]; Table 18, concentration of the named API in the CS + ZL + LA combination, read-out: Anti-Sperm concentrations Total motility (EC90)",22 mM
same,MIC (concentration to inhibit progressive sperm motility),[2]; single API,30 mM
same,EC50,[2]; single API (CS/ZL/LA study),45 mM
same,EC90,"[2]; single API (CS/ZL/LA study), read-out: EC90",94 mM
same,EC90,"[2]; single API, read-out: Reduction of Sperm Motility EC90 [95% CI] (concentration to inhibit total sperm motility)",94 mM
same,EC90,"[3]; Table 16, concentration of the named API in the CS + ZL + LA combination (cf. Table 7), read-out: Anti-Sperm concentrations Sperm-mucus penetration (EC90)",5 mM
same,EC90,"[3]; Table 18, concentration of the named API in the CS + ZL + LA combination, read-out: Anti-Sperm concentrations Sperm-mucus penetration (EC90)",5 mM
same,EC90,"[3]; single API, 1% methylcellulose, 30 minutes, read-out: Inhibition of Sperm Mucus Penetration EC90 [95% CI] (Migration of vanguard sperm in methyl cellulose spiked with API)",13 mM
same,MCC 10% AB Serum,[6],>100 mM
same,MCC 30% AB Serum,[6],>100 mM
same,MCC No Serum,[6],>100 mM
same,inhibitory activity (in words),[6]; ± human serum,not inhibitory
same,inhibition of C. trachomatis infection (in words),[8],exception
same,"Ectocervix: single exposure (MTT, Histology, CC) 24 h, 5% VF",[9]; 25 mM,No Tox
same,"Ectocervix: single exposure (MTT, Histology, CC) 24 h, No VF",[9]; 25 mM,No Tox
same,"Ectocervix: single exposure (MTT, Histology, CC) 24 h, 5% VF",[9]; 50 mM,No Tox
same,"Ectocervix: single exposure (MTT, Histology, CC) 24 h, No VF",[9]; 50 mM,No Tox
same,"Ectocervix: single exposure (MTT, Histology, CC) 24 h, 5% VF",[9]; 100 mM,No Tox
same,"Ectocervix: single exposure (MTT, Histology, CC) 24 h, No VF",[9]; 100 mM,No Tox
same,Non-toxic concentrations in ectocervix MTT and histology 24 hr,[9],100 mM
same,"VEC-100 single exposure (MTT, TEER and LDH) day 1-5 24 h No VF",[1]; 10 mM,No Tox
same,"VEC-100 single exposure (MTT, TEER and LDH) day 1-5 24 h No VF",[1]; 21 mM,No Tox
same,Non-toxic concentrations in VEC-100 model TEER and LDH 5 daily exposures,[1],21 mM
same,Non-toxic concentrations based on rat vaginal irritation study 10 days exposure,10 days exposure,50 mM
"CC(=O)[O-].CC(=O)[O-].[Zn+2] [ZA, zinc acetate]",Average Motility Reduction,[2]; [12],63.47%
same,Average CI,[2]; [12],0.48
same,Average Motility Reduction,[2]; [13],73.77%
same,Average CI,[2]; [13],0.47
same,Average Motility Reduction,[2]; [14],80.09%
same,Average CI,[2]; [14],0.45
same,EC50,"[2]; single API (CS/ZA/LA study), saline, 5 min with fresh semen, % motility vs saline control",19 mM
same,EC90,"[2]; single API (CS/ZA/LA study), saline, 5 min with fresh semen, % motility vs saline control, read-out: EC90",33.2 mM
same,EC50,[4]; [15],1.96 mM
same,EC50,[5]; single API,780 µM
same,MCC 10% AB Serum,[6],100 mM
same,MCC 30% AB Serum,[6],>100 mM
same,MCC,[6],100 mM
same,MCC No Serum,[6],100 mM
same,MCC,[7],> 100 mM
same,"Ectocervix: single exposure (MTT, Histology, CC) 24 h, 5% VF",[9]; 100 mM,No Tox
same,"Ectocervix: single exposure (MTT, Histology, CC) 24 h, No VF",[9]; 100 mM,No Tox
same,"VEC-100: Single exposure (MTT, TEER and LDH) 24 h, No VF",[11]; 100 mM,No Tox
